Reference: US5492906A, “Derivatives of thieno-triazolo-diazepine and therapeutic compositions containing them” (Societe de Conseils de Recherches et d'Applications …, priority 1989, dated 1996)

Legend:
[1] = tested on: bronchospasm induced by the PAF; assay: Action on the bronchospasm induced by the PAF in anaesthetized guinea-pigs; format: in vivo, guinea-pig; settings: male Hartley guinea-pigs, oral, 1 hour before PAF i.v.; for Percentage of action: change versus controls; for Percentage of bronchoconstriction: controls 79. ± 5.55, dose not given
Source text: 3) Action on the bronchospasm induced by the PAF
The PAF intravenous injection in anaesthetized guinea-pigs induces a bronchoconstriction with a leucopeny and a thrombocytopeny, according to the method described in S. DESQUAND, C. TOUVAY, J. RANDON, V. LAGENTE, B. VILAIN, I. MARIDONNEAU-PARINI, A. ETIENNE, J. LEFORT, P. BRAQUET and B. VARGAFTIG. Interference of BN 52021 (Ginkolide B) with the bronchopulmonary effects of PAF-acether in the guinea-pig. Eur. J. Pharmacol. 127: 83-95, 1986.
Male Hartley guinea-pigs (400-450 g) (Charles River) anaesthetized with urethane (2 g/kg IP), then are thracheotomized and submitted to a forced respiration with a breathing pump:70-80 strokes/mn, 1 ml of air/ 100 g per stroke. A catheter is introduced in the jugular vein for the injections, an other is introduced in the carotic artery for blood takings. The initial resistance is kept constant under the pressure of 10 cm of water in accordance with the Konzett and Rossler method and the air in excess is measured with a transducor for bronchospasm UGO BASILE together with an enregistror GEMINI. The guinea-pigs had received an IV injection of pancuronium (Pavulon) to inhibit their spontaneous respiration.
The compound according to the invention and the reference compound WEB 2086 (see the above cited Boehringer patent) have been prepared as suspension in gummy water and administrated orally 1 hour before the stimulation by the PAF.
The bronchoconstriction is appreciated by the calculation of the percentage of bronchoconstriction [formula] wherein A stands for induced bronchoconstriction in mm and B stands for maximum bronchoconstriction in mm.

[2] = tested on: platelet agregation induced by PAF; assay: Inhibition of platelet agregation induced by PAF; format: cell-based, New Zealand rabbits; settings: Oryctolagus cuniculus, New Zealand rabbit platelets, agregometer at 57° C., Table I
Protocol: 1) Inhibition of platelet agregation induced by PAF
This experimentation was conducted according to the method of R. KINLOUGH. RATHBONE, J. P. CAZENAVE, M. PACKHAM and F. MUSTARD, Lab. Invest. 48, 98, 1980. In this test, New Zealand rabbits were used (male New Zealand rabbits of an average weight of 5 kg).
The determinations are made on a chrono-log Coultronics agregometer, at […] coupled with a graphic recorder; the results of these determinations (in molecular concentration) are reported on the table I on the central column.

benzodiazepine receptors = assay: Inhibition of the binding to benzodiazepine receptors (rat brains); settings: rat brains incubated 1 h 30 at 4° C.; 3H-RO-15-4788 and 3H-RO-5-4864 as tracers; Table I; read-out: BDZ receptors (inhibition of the binding to benzodiazepine receptors)
Source text: 2) Inhibition of the binding to benzodiazepine receptors
The interest of the previous experimentation depends on the results obtained in this experimentation: as a compound of the invention has a benzodiazepine like structure, it is important to check whether the specific benzodiazepine activity would not appear at the dose where platelet agregation was inhibited.
Therefore, this experimentation has been conducted according to the method of MOHLER H. and RICHARD J. G. Agonist and antagonist benzodiazepine receptor intereaction in vitro, Nature, vol. 294, 763°-765, 1981.
This experimentation was conducted on rat brains incubated 1 h 30 at 4° C. using ^3 H-RO-15-4788 and ^3 H-RO-5-4864 (NEN) as tracers and […] and RO-5-4864 as reference antagonists.
The results in molecular concentration are reported in the table I, on the right hand column.

Toxicity on the mice = settings: mouse, in vivo, IP route

Compound	Percentage of action [1]	Percentage of bronchoconstriction [1]	IC50 [2]	IC50 (benzodiazepine receptors)	LD50 (Toxicity on the mice)
Cc1nnc2n1-c1sc3c(c1C(c1ccccc1Cl)=NC2)CCN(C(=S)NC(C)C)C3 [Example 1, 6-(2-chlorophenyl)-9-isopropylthiocarbamoyl-7,8,9,10-tetrahydro-1-methyl4H-pyrido[4',3':4,5]thieno[3,2-f]1,2,4-triazolo[4,3-a]1,4-diazepine]	-70.4%	23.4%	32.8 nM	7000 nM	
Cc1nnc2n1-c1sc3c(c1C(c1ccccc1Cl)=NC2)CCN(C(=O)NC(C)(C)C)C3 [Example 3, 6-(2-chlorophenyl)-9-tertbutylcarbamoyl-7,8,9,10-tetra-hydro-1-methyl4H-pyrido[4',3':4,5]thieno[3,2-f]1,2,4-triazolo [4,3-a]1,4-diazepine]	-63.7%	28.7%	17.1 nM	430 nM	
CCCCCCCCCCCCCCCCNC(=S)N1CCc2c(sc3c2C(c2ccccc2Cl)=NCc2nnc(C)n2-3)C1 [Example 5, 6-(2-chlorophenyl)-9-hexadecylthiocarbamoyl-7,8,9,10-tetrahydro-1-methyl4H-pyrido[4',3':4,5]thieno [3,2-f]1,2,4-triazolo [4,3-a]1,4-diazepine]	-61.6%	30.3%	297 nM	63000 nM	
COc1ccc(NC(=S)N2CCc3c(sc4c3C(c3ccccc3Cl)=NCc3nnc(C)n3-4)C2)cc1 [Example 7, 6-(2-chlorophenyl)-9-(4-methoxy)phenylthiocarbamoyl-7,8,9,10-tetrahydro-1-methyl4H-pyrido[4',3':4,5]thieno[3,2-f]1,2,4-triazolo[4,3-a]1,4-diazepine]	-83.5%	13 ± 4.39%	301 nM	2000 nM	
COc1cc(NC(=O)N2CCc3c(sc4c3C(c3ccccc3Cl)=NCc3nnc(C)n3-4)C2)cc(OC)c1OC [Example 8, 6-(2-chlorophenyl)-9-(3,4,5-trimethoxy)phenylcarbamoyl-7,8,9,10-tetrahydro-1-methyl 4H-pyrido[4',3':4,5]thieno [3,2-f]1,2,4-triazolo [4,3-a]1,4-diazepine]	-79.5%	16.2%	11.5 nM	1500 nM	
Cc1nnc2n1-c1sc3c(c1C(c1ccccc1Cl)=NC2)CCN(C(=O)Nc1ccc(C(C)(C)C)cc1)C3 [Example 10, 6-(2-chlorophenyl)-9-(4-tertbutyl)phenylcarbamoyl-7,8,9,10-tetrahydro-1-methyl 4H-pyrido[4',3':4,5]thieno [3,2-f]1,2,4-triazolo[4,3-a]1,4-diazepine]	-66.2%	26.7%	8.8 nM	5250 nM	400 to 1000 mg/kg
Cc1nnc2n1-c1sc3c(c1C(c1ccccc1Cl)=NC2)CCN(C(=O)Nc1ccc(C(F)(F)F)cc1)C3 [Example 14, 6-(2-chlorophenyl)-9-(4-trifluoromethyl)phenylcarbamoyl-7,8,9,10-tetrahydro-1-methyl 4H-pyrido[4',3':4,5]thieno[3,2-f]1,2,4-triazolo[4,3-a]1,4-diazepine]	-38.5%	48.6%	150 nM	70500 nM	
Cc1nnc2n1-c1sc3c(c1C(c1ccccc1Cl)=NC2)CCN(C(=O)Nc1cccc(Cl)c1Cl)C3 [Example 17, 6-(2-chlorophenyl)-9-(2,3-dichloro)phenylcarbamoyl-7,8,9,10-tetrahydro-1-methyl 4H-pyrido[4',3':4,5]thieno[3,2-f]1,2,4-triazolo[4,3-a]1,4-diazepine]			55 nM	920 nM	400 to 1000 mg/kg
Cc1nnc2n1-c1sc3c(c1C(c1ccccc1Cl)=NC2)CCN(C(=O)Nc1ccc(Oc2ccccc2)cc1)C3 [Example 18, 6-(2-chlorophenyl)-9-(4-phenoxy)phenylcarbamoyl-7,8,9,10-tetrahydro-1-methyl 4H-pyrido[4',3':4,5]thieno[3,2-f]1,2,4-triazolo[4,3-a]1,4-diazepine]	-81.8%	14.1%	33 nM	860 nM	400 to 1000 mg/kg
Cc1nnc2n1-c1sc3c(c1C(c1ccccc1Cl)=NC2)CCN(C(=S)Nc1ccc(C(C)(C)C)cc1C(C)(C)C)C3 [Example 22, 6-(2-chlorophenyl)-9-(2,4-diterbutyl)phenylthiocarbamoyl-7,8,9,10-tetrahydro-1-methyl-4H-pyrido[4',3':4,5]thieno[3,2-f]1,2,4-triazolo[4,3-a]1,4-diazepine]	-67.7%	25.5%	366 nM	630 nM	
Cc1nnc2n1-c1sc3c(c1C(c1ccccc1Cl)=NC2)CCN(C(=S)NCc1ccco1)C3 [Example 24, 6-(2-chlorophenyl)-9-(2-furfuryl)thiocarbamoyl-7,8,9,10-tetrahydro-1-methyl-4H-pyrido[4',3':4,5]thieno[3,2-f]1,2,4-triazolo[4,3-a]1,4-diazepine]	-57.9%	33.3%	48 nM	650 nM	
Cc1nnc2n1-c1sc3c(c1C(c1ccccc1Cl)=NC2)CCN(C(=S)NS(=O)(=O)c1ccccc1)C3 [Example 30, 6-(2-chlorophenyl)-9-(phenylsulfonyl)thiocarbamoyl-7,8,9,10-tetrahydro-1-methyl-4H-pyrido[4',3':4,5]thieno[3,2-f]1,2,4-triazolo[4,3-a]1,4-diazepine]	-52.9%	37.2%	11 nM	630 nM	
Cc1nnc2n1-c1sc3c(c1C(c1ccccc1Cl)=NC2)CCN(C(=S)NS(=O)(=O)c1ccc[nH]1)C3 [Example 33, 6-(2-chlorophenyl)-9-(2-pyrrolylsulfonyl)thiocarbamoyl7,8,9,10-tetrahydro-1-methyl-4H-pyrido[4',3':4,5]thieno[3,2-f]1,2,4-triazolo[4,3-a]1,4-diazepine]	-71.7%	22.4%	205 nM	9100 nM	400 to 1000 mg/kg
Cc1nnc2n1-c1sc(CCC(=O)N3CCOCC3)cc1C(c1ccccc1Cl)=NC2 [WEB 2086, reference compound]	-68.0%	25.3%			
